Laboratory results: PubChem BioAssay AID1963862 (Molecular Pharmacology Branch, DTP, NCI, 2024)

System: KRAS patient-derived spheroids with HUVEC/MSC, viability
Assay: Anticancer human tumor 941728-121-R-J1-PDC patient-derived lung adenocarcinoma cell line growth inhibition [KRAS2]
Conditions: for IC50: curve of first compound; for viability, T/C: stronger effect = lower value; active = viability on the fitted dose curve at most 10% of control; inactive = the rest
Method in brief: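 KRAS-mutant tumor cells were grown as spheroids with HUVEC endothelial cells and human MSCs as stroma. Targeted agents were tested alone and with KRAS pathway inhibitors. Doses started at or near clinical Cmax, or 10 microM, descending half-log.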

[1] = second compound 0.0316 µM, first compound 0.0316 µM
[2] = second compound 0.1 µM, first compound 0.0316 µM
[3] = second compound 0.316 µM, first compound 0.0316 µM
[4] = second compound 1 µM, first compound 0.0316 µM
[5] = second compound 3.16 µM, first compound 0.0316 µM
[6] = second compound 0.0316 µM, first compound 0.1 µM
[7] = second compound 0.0316 µM, first compound 0.316 µM
[8] = second compound 0.0316 µM, first compound 1 µM
[9] = second compound 0.0316 µM, first compound 3.16 µM
[10] = second compound 0.0316 µM, first compound 10 µM
[11] = second compound 0.1 µM, first compound 0.1 µM
[12] = second compound 0.1 µM, first compound 0.316 µM
[13] = second compound 0.1 µM, first compound 1 µM
[14] = second compound 0.1 µM, first compound 3.16 µM
[15] = second compound 0.1 µM, first compound 10 µM
[16] = second compound 0.316 µM, first compound 0.1 µM
[17] = second compound 0.316 µM, first compound 0.316 µM
[18] = second compound 0.316 µM, first compound 1 µM
[19] = second compound 0.316 µM, first compound 3.16 µM
[20] = second compound 0.316 µM, first compound 10 µM
[21] = second compound 1 µM, first compound 0.1 µM
[22] = second compound 1 µM, first compound 0.316 µM
[23] = second compound 1 µM, first compound 1 µM
[24] = second compound 1 µM, first compound 3.16 µM
[25] = second compound 1 µM, first compound 10 µM
[26] = second compound 3.16 µM, first compound 0.1 µM
[27] = second compound 3.16 µM, first compound 0.316 µM
[28] = second compound 3.16 µM, first compound 1 µM
[29] = second compound 3.16 µM, first compound 3.16 µM
[30] = second compound 3.16 µM, first compound 10 µM
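Note: spheroids exposed to agents for seven days before readout.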

CC(=O)Nc1cccc(-n2c(=O)n(C3CC3)c(=O)c3c(Nc4ccc(I)cc4F)n(C)c(=O)c(C)c32)c1 + C=CC(=O)N1CCN(c2nc(OCC3CCCN3C)nc3c2CCN(c2cccc4cccc(C)c24)C3)CC1CC#N
active: viability, T/C (second compound 3.16 µM, first compound 0.0001 µM) 0.84% | viability, T/C (second compound 3.16 µM, first compound 0.000316 µM) 0.35% | viability, T/C (second compound 3.16 µM, first compound 0.001 µM) 1.24% | viability, T/C (second compound 3.16 µM, first compound 0.00316 µM) 0.89% | viability, T/C (second compound 3.16 µM, first compound 0.01 µM) 1.14% | viability, T/C [5] 0.53%
< 0.1 nM: IC50 (second compound 0.0316 µM) | IC50 (second compound 0.1 µM) | IC50 (second compound 0.316 µM) | IC50 (second compound 1 µM) | IC50 (second compound 3.16 µM)
inactive: viability, T/C (second compound 0.0316 µM, first compound 0.0001 µM) 31% | viability, T/C (second compound 0.0316 µM, first compound 0.000316 µM) 26.4% | viability, T/C (second compound 0.0316 µM, first compound 0.001 µM) 25.9% | viability, T/C (second compound 0.0316 µM, first compound 0.00316 µM) 25.4% | viability, T/C (second compound 0.0316 µM, first compound 0.01 µM) 24.2% | viability, T/C [1] 25.1% | viability, T/C (second compound 0.1 µM, first compound 0.0001 µM) 30.9% | viability, T/C (second compound 0.1 µM, first compound 0.000316 µM) 26.7% | viability, T/C (second compound 0.1 µM, first compound 0.001 µM) 25.4% | viability, T/C (second compound 0.1 µM, first compound 0.00316 µM) 25.5% | viability, T/C (second compound 0.1 µM, first compound 0.01 µM) 21.2% | viability, T/C [2] 22% | viability, T/C (second compound 0.316 µM, first compound 0.0001 µM) 29.2% | viability, T/C (second compound 0.316 µM, first compound 0.000316 µM) 27.2% | viability, T/C (second compound 0.316 µM, first compound 0.001 µM) 23.4% | viability, T/C (second compound 0.316 µM, first compound 0.00316 µM) 24.1% | viability, T/C (second compound 0.316 µM, first compound 0.01 µM) 22.1% | viability, T/C [3] 22.9% | viability, T/C (second compound 1 µM, first compound 0.0001 µM) 24% | viability, T/C (second compound 1 µM, first compound 0.000316 µM) 22.9% | viability, T/C (second compound 1 µM, first compound 0.001 µM) 19% | viability, T/C (second compound 1 µM, first compound 0.00316 µM) 21.3% | viability, T/C (second compound 1 µM, first compound 0.01 µM) 20% | viability, T/C [4] 22.6%

COC(=O)c1ccc2c(C(=Nc3ccc(N(C)C(=O)CN4CCN(C)CC4)cc3)c3ccccc3)c(O)[nH]c2c1 + C=CC(=O)N1CCN(c2nc(OCC3CCCN3C)nc3c2CCN(c2cccc4cccc(C)c24)C3)CC1CC#N
< 31.6 nM: IC50 (second compound 0.0316 µM) | IC50 (second compound 0.1 µM) | IC50 (second compound 0.316 µM) | IC50 (second compound 1 µM) | IC50 (second compound 3.16 µM)
inactive: viability, T/C [1] 30.6% | viability, T/C [6] 26.9% | viability, T/C [7] 23.9% | viability, T/C [8] 22.5% | viability, T/C [9] 8.16% | viability, T/C [2] 31.4% | viability, T/C [11] 27% | viability, T/C [12] 23.2% | viability, T/C [13] 18.1% | viability, T/C [3] 29.8% | viability, T/C [16] 26.9% | viability, T/C [17] 23.7% | viability, T/C [18] 18.1% | viability, T/C [4] 24.2% | viability, T/C [21] 23.9% | viability, T/C [22] 23.4% | viability, T/C [23] 13%
active: viability, T/C [10] 6.26% | viability, T/C [14] 4.92% | viability, T/C [15] 5.67% | viability, T/C [19] 4.34% | viability, T/C [20] 3.09% | viability, T/C [24] 0.56% | viability, T/C [25] 0.29% | viability, T/C [5] 0.27% | viability, T/C [26] 0.31% | viability, T/C [27] 0.12% | viability, T/C [28] 0.11% | viability, T/C [29] 0.07% | viability, T/C [30] 0.11%

COc1cc(Nc2ncc3c(n2)-c2ccc(Cl)cc2C(c2c(F)cccc2OC)=NC3)ccc1C(=O)O + C=CC(=O)N1CCN(c2nc(OCC3CCCN3C)nc3c2CCN(c2cccc4cccc(C)c24)C3)CC1CC#N
< 31.6 nM: IC50 (second compound 0.0316 µM) | IC50 (second compound 0.1 µM) | IC50 (second compound 0.316 µM) | IC50 (second compound 1 µM) | IC50 (second compound 3.16 µM)
inactive: viability, T/C [1] 32.1% | viability, T/C [6] 29.5% | viability, T/C [7] 26.1% | viability, T/C [8] 26.3% | viability, T/C [9] 22.9% | viability, T/C [10] 20.3% | viability, T/C [2] 33.6% | viability, T/C [11] 30.4% | viability, T/C [12] 25.6% | viability, T/C [13] 25.9% | viability, T/C [14] 22.8% | viability, T/C [15] 20.9% | viability, T/C [3] 30.4% | viability, T/C [16] 26.1% | viability, T/C [17] 26.8% | viability, T/C [18] 26.1% | viability, T/C [19] 22% | viability, T/C [20] 20.3% | viability, T/C [4] 26.5% | viability, T/C [21] 26.3% | viability, T/C [22] 27.1% | viability, T/C [23] 22.9% | viability, T/C [24] 23% | viability, T/C [25] 16.5%
active: viability, T/C [5] 0.53% | viability, T/C [26] 0.41% | viability, T/C [27] 0.87% | viability, T/C [28] 0.19% | viability, T/C [29] 0.26% | viability, T/C [30] 0.18%

O=C(c1cc(Cc2n[nH]c(=O)c3ccccc23)ccc1F)N1CCN(C(=O)C2CC2)CC1 + C=CC(=O)N1CCN(c2nc(OCC3CCCN3C)nc3c2CCN(c2cccc4cccc(C)c24)C3)CC1CC#N
active: viability, T/C [5] 0.38% | viability, T/C [26] 4.45% | viability, T/C [27] 1.13% | viability, T/C [28] 0.34% | viability, T/C [29] 0.38% | viability, T/C [30] 0.53%
inactive: viability, T/C [1] 36.5% | viability, T/C [6] 36.5% | viability, T/C [7] 59.6% | viability, T/C [8] 29.1% | viability, T/C [9] 26.9% | viability, T/C [10] 36.2% | viability, T/C [2] 32.3% | viability, T/C [11] 33.3% | viability, T/C [12] 30.5% | viability, T/C [13] 32.5% | viability, T/C [14] 30.6% | viability, T/C [15] 35.4% | viability, T/C [3] 36.1% | viability, T/C [16] 33.7% | viability, T/C [17] 33.3% | viability, T/C [18] 33.7% | viability, T/C [19] 33.9% | viability, T/C [20] 34.2% | viability, T/C [4] 32.6% | viability, T/C [21] 36.2% | viability, T/C [22] 35.2% | viability, T/C [23] 32.8% | viability, T/C [24] 32% | viability, T/C [25] 35.7%
< 31.6 nM: IC50 (second compound 0.0316 µM) | IC50 (second compound 0.1 µM) | IC50 (second compound 0.316 µM) | IC50 (second compound 1 µM) | IC50 (second compound 3.16 µM)
